Experimental data: ChEMBL document CHEMBL4811228, “Design, Synthesis, and Activity Evaluation of Novel Acyclic Nucleosides as Potential Anticancer Agents In Vitro and In Vivo” (J Med Chem, 2021)
Activity calls are given as the source filed them. No cut-off for these calls is given here.

Experiments:
SW480 [1] = experiment: Binding affinity to 75kDa protein in human SW480 cells incubated for overnight by pull down based western blot analysis; type: cell-based
HCT-116 [2] = experiment: Antiproliferative activity against human HCT-116 cells assessed as reduction in cell viability incubated for 48 hrs by MTT assay; type: functional, cell-based; settings: HCT-116, 48 h
SW480 [3] = experiment: Binding affinity to 75kDa protein in human SW480 cells incubated for overnight by pull down based silver staining analysis; type: cell-based
SW480 [4] = experiment: Antiproliferative activity against human SW480 cells assessed as reduction in cell viability incubated for 48 hrs by MTT assay; type: functional, cell-based; settings: SW480, 48 h
HCT-116 [5] = experiment: Potency index, ratio of 5-FU IC50 to test compound IC50 for antiproliferative activity against human HCT-116 cells; type: functional
A549 = experiment: Antiproliferative activity against human A549 cells assessed as reduction in cell viability incubated for 48 hrs by MTT assay; type: functional, cell-based; settings: A549, 48 h
HeLa = experiment: Antiproliferative activity against human HeLa cells assessed as reduction in cell viability incubated for 48 hrs by MTT assay; type: functional, cell-based
U-87 MG = experiment: Antiproliferative activity against human U-87 MG cells assessed as reduction in cell viability incubated for 48 hrs by MTT assay; type: functional, cell-based, U-87MG ATCC

| SMILES | IC50 (HCT-116 [2]) | IC50 (SW480 [4]) | other results |
| --- | --- | --- | --- |
| C#CCCC1(CCN)N=N1 |  |  | Activity (SW480 [1]): inactive |
| CCCCCCCCCC(CC(=O)NCCCCCNC(=O)CCCC[C@@H]1SC[C@@H]2NC(=O)N[C@@H]21)n1cnc2c(Cl)ncnc21 (mixture of isomers) | 44.7 µM | 45.2 µM | Activity (SW480 [3]): Active |
| CCCCCCCCCC(CCO)n1cnc2c(N)nc(Cl)nc21 (racemic) | 14.8 µM | 12.2 µM |  |
| CCCCCCCCC(CCO)n1c(Br)nc2c(Cl)ncnc21 (racemic) | 22.4 µM | 17.8 µM |  |
| CCCCCC(CCO)n1cnc2cncnc21 (racemic) | > 50 µM | > 50 µM |  |
| OCCC(CO)n1cnc2c(Cl)ncnc21 (racemic) | > 50 µM | > 50 µM |  |
| CCCCCCCCCC(CCOCP(=O)(OCC)OCC)n1cnc2c(Cl)ncnc21 (racemic) | 9.11 µM | 4.79 µM |  |
| CCCCCCCCC(CCO)n1cnc2c(N)nc(Cl)nc21 (racemic) | 21 µM | 13.1 µM |  |
| CCCCCCC(CCO)n1cnc2c(NC)ncnc21 (racemic) | > 50 µM | > 50 µM |  |
| CCCCCC(CCO)n1cnc2c(Cl)nc(Cl)nc21 (racemic) | 6.17 µM | 6.01 µM |  |
| CC(C)(C)[Si](C)(C)OCC(CCO)n1cnc2c(Cl)ncnc21 (racemic) | > 50 µM | 31.7 µM |  |
| CCCCCC(CCO)n1cnc2c(N)nc(Cl)nc21 (racemic) | > 50 µM | > 50 µM |  |
| CCCCCCCCCCC(CCO)n1cnc2c(N)ncnc21 (racemic) | 2.59 µM |  | Ratio IC50 (HCT-116 [5]): 4 |
| CCCCCCC(CCO)n1cnc2c(N)nc(Cl)nc21 (racemic) | > 50 µM | > 50 µM |  |
| CCCCCCCCCC(CCn1cc(-c2ccccc2)nn1)n1cnc2c(Cl)ncnc21 (racemic) | 13.5 µM | 9.92 µM |  |
| C=C(CO)C(c1ccccc1)n1cnc2c(Cl)ncnc21 (racemic) | 33.3 µM | 12.9 µM |  |
| CCCCCCCCC(CCO)n1cnc2c(N)ncnc21 (racemic) | 11.6 µM | 20.7 µM |  |
| C#CCCC1(CCNC(=O)CC(CCCCCCCCC)n2cnc3c(Cl)ncnc32)N=N1 (racemic) | 21.5 µM | 13 µM | Activity (SW480 [3]): Active; Activity (SW480 [1]): Active |
| CCCCCCCC(CCO)n1c(Br)nc2c(Cl)ncnc21 (racemic) | 16.2 µM | 14.4 µM |  |
| CCCCCCCCCCCC(CCO)n1cnc2c(N)nc(Cl)nc21 (racemic) | 19.9 µM | 17.8 µM |  |
| CCCCCCCC(CCO)n1cnc2c(OC)ncnc21 (racemic) | 15.3 µM | 23.9 µM |  |
| CCCCCCCC(CCO)n1cnc2c(N)ncnc21 (racemic) | > 50 µM | > 50 µM |  |
| CCCCCC(CCO)n1cnc2c(OC)ncnc21 (racemic) | > 50 µM | > 50 µM |  |

| SMILES | IC50 (HCT-116 [2]) | IC50 (SW480 [4]) | other results |
| --- | --- | --- | --- |
| C=C(CO)C(CCCCCCCC)n1cnc2c(Cl)ncnc21 (racemic) | 19.4 µM | 16.2 µM |  |
| CCCCCCC(CCO)n1cnc2c(OC)ncnc21 (racemic) | > 50 µM | > 50 µM |  |
| CCCCCCCC(CCO)n1cnc2c(N)nc(Cl)nc21 (racemic) | > 50 µM | > 50 µM |  |
| CCCCCCCCCC(CCO)n1cnc2c(NC)ncnc21 (racemic) | 5.41 µM | 4.45 µM |  |
| CCCCCCCCCCCC(CCO)n1cnc2c(N(C)C)ncnc21 (racemic) | 12 µM | 11.8 µM |  |
| CCCCCCCCCCCC(CCO)n1cnc2c(NC)ncnc21 (racemic) | 15.4 µM | 12.8 µM |  |
| C=C(CO)C(CCCCCC)n1cnc2c(Cl)ncnc21 (racemic) | 30.2 µM | 32 µM |  |
| CCCCCCCCCCC(CCO)n1cnc2c(NC)ncnc21 (racemic) | 12.7 µM | 12 µM |  |
| CCCCCCCC(CCO)n1cnc2c(Cl)nc(Cl)nc21 (racemic) | 12.8 µM | 13.6 µM |  |
| CCCCCCCCCC(CCO)n1cnc2c(OC)ncnc21 (racemic) | 2.53 µM | 3.25 µM |  |
| CCCCCCC(CCO)n1c(Br)nc2c(Cl)ncnc21 (racemic) | 16.1 µM | 14.1 µM |  |
| CCCCCCCC(CCO)n1cnc2c(NC)ncnc21 (racemic) | 12.5 µM | 15.3 µM |  |
| CCCCCCCCCC(CCO)n1cnc2c(Cl)nc(Cl)nc21 (racemic) | 32.6 µM | 36.3 µM |  |
| CCCCCCCCCCC(CCO)n1cnc2c(N(C)C)ncnc21 (racemic) | 5.49 µM | 3.32 µM |  |
| CCCCCCCCCC(CCO)n1c(Br)nc2c(Cl)ncnc21 (racemic) | 26.9 µM | 25 µM |  |
| CCCCCCCCCCCC(CCO)n1cnc2c(OC)ncnc21 (racemic) | 8.23 µM | 9.7 µM |  |
| CCCCCCCCCCCC(CCO)n1cnc2c(N)ncnc21 (racemic) | 13.3 µM | 11.6 µM |  |
| CCCCCCC(CCO)n1cnc2c(Cl)nc(Cl)nc21 (racemic) | 12.1 µM | 12.4 µM |  |
| CCCCCC(CCO)n1cnc2c(NC)ncnc21 (racemic) | > 50 µM | > 50 µM |  |
| CCCCC(CCO)n1cnc2cncnc21 (racemic) | > 50 µM | > 50 µM |  |
| CCCCCC(CCO)n1c(Br)nc2c(Cl)ncnc21 (racemic) | 18.3 µM | 23.8 µM |  |
| CCCCCCCCCC(CCOCP(=O)(O)O)n1cnc2c(Cl)ncnc21 (racemic) | > 50 µM | > 50 µM |  |
| C=C(CO)C(CCCCCCCCC)n1cnc2c(Cl)ncnc21 (racemic) | > 50 µM | 27.6 µM |  |

| SMILES | IC50 (HCT-116 [2]) | IC50 (SW480 [4]) | other results |
| --- | --- | --- | --- |
| CCCCCCCCC(CCO)n1cnc2c(N(C)C)ncnc21 (racemic) | 19.8 µM | 21.6 µM |  |
| CCCCCCCCCCC(CCO)n1cnc2c(OC)ncnc21 (racemic) | 7.53 µM | 8.26 µM |  |
| CCCCC(CCO)n1cnc2c(OC)ncnc21 (racemic) | > 50 µM | > 50 µM |  |
| CCCCCC(CCO)n1cnc2c(N)ncnc21 (racemic) | > 50 µM | > 50 µM |  |
| CCCCCCCCCCC(CCO)n1cnc2c(N)nc(Cl)nc21 (racemic) | 11.8 µM | 13.1 µM |  |
| CCCCCCCCCC(CCN=[N+]=[N-])n1cnc2c(Cl)ncnc21 (racemic) | 1.04 µM | 1.2 µM |  |
| CCCCCCCCC(CCO)n1cnc2c(Cl)nc(Cl)nc21 (racemic) | 22.2 µM | 24 µM |  |
| CCCCCCCCCC(CCCl)n1cnc2c(Cl)ncnc21 (racemic) | 10.2 µM | 7.18 µM |  |
| CCCCCCCCC(CCO)n1cnc2c(OC)ncnc21 (racemic) | 12.8 µM | 24.6 µM |  |
| CCCCC(CCO)n1cnc2c(Cl)nc(Cl)nc21 (racemic) | 15.5 µM | 30.9 µM |  |
| C=C(CO)C(CCCCC)n1cnc2c(Cl)ncnc21 (racemic) | > 50 µM | > 50 µM |  |
| CCCCCCCCC(CCO)n1cnc2c(NC)ncnc21 (racemic) | 3.73 µM | 3.77 µM |  |
| CCCCCCCCCC(CCO)n1cnc2c(N)ncnc21 (racemic) | 10.5 µM | 6.03 µM |  |
| CCCCCCC(CCO)n1cnc2c(N)ncnc21 (racemic) | > 50 µM | > 50 µM |  |
| CCCCCCC(CCO)n1cnc2c(N(C)C)ncnc21 (racemic) | > 50 µM | > 50 µM |  |
| C=C(CO)C(CCCCCCC)n1cnc2c(Cl)ncnc21 (racemic) | 22.4 µM | 29.4 µM |  |
| CCCCC(CCO)n1cnc2c(N)ncnc21 (racemic) | > 50 µM | > 50 µM |  |
| CCCCCCCCCC(CCO)n1cnc2c(N(C)C)ncnc21 (racemic) | 9.81 µM | 12.2 µM |  |
| CCCCCCCCCC(CCOS(C)(=O)=O)n1cnc2c(Cl)ncnc21 (racemic) | 5.44 µM | 5.39 µM |  |
| CCCCCCCC(CCO)n1cnc2c(N(C)C)ncnc21 (racemic) | > 50 µM | > 50 µM |  |
| CCCCCCC(CCO)n1cnc2cncnc21 (racemic) | > 50 µM | > 50 µM |  |
| CCCCCC(CCO)n1cnc2c(N(C)C)ncnc21 (racemic) | > 50 µM | > 50 µM |  |
| O=c1[nH]cc(F)c(=O)[nH]1 [FLUOROURACIL] | 10.8 µM | 9.7 µM | IC50 (A549): > 50 µM; IC50 (HeLa): > 50 µM; IC50 (U-87 MG): > 50 µM |
